Assay results as given in patent publication US20120288482A1, “THERAPEUTIC AGENT (Y-39983) FOR CORNEAL ENDOTHELIAL DYSFUNCTION” (priority 2009, published 2012).

What was measured:
[1] = system: rabbit corneal endothelial cells; assay: Production of cultured corneal endothelial cell sheet for transplantation, ZO-1 and Na+/K+ ATPase immunostaining (Example 7); type: cell-based; details: for coverage of the sheet with cells / expression of Na+/K+ ATPase / expression of ZO-1: 48 hours after seeding
Procedure: In this Example, rabbit corneal endothelial cells prepared in the same manner as in Example 4 were used.
In this Example, moreover, test substances and control substance prepared in the same manner as in Example 4 were used.
The rabbit corneal endothelial cells were seeded on Vitrigel™ (Asahi Glass) at a division ratio of 1:1, and a cultured corneal endothelial cell sheet for transplantation was produced. When producing the corneal endothelial cell sheet, 0.95 μM compound (I), 10 μM Y-27632 or 0.04% DMSO was added. The obtained corneal endothelial cell sheet was subjected to fluorescence immunostaining with ZO-1 and Na^+/K^+ ATPase, which are functional proteins of corneal endothelial cells, and expression was confirmed.
The corneal endothelial cell sheet was fixed with 95% ethanol (−30° C.) for 10 min, washed with PBS, and treated with 0.5% Triton X-100/PBS for 5 min. Then, it was treated with 1% BSA/PBS for 1 hour, and treated overnight with anti-ZO-1 antibody (Invitrogen, Cat. #339100) or anti-Na^+/K^+ ATPase antibody (Millipore, Cat. #C464.6). After washing with PBS, it was treated with Alexa-488 labeling secondary antibody for 1 hour. After washing with PBS, mounting medium (Vectashield (registered trade mark)) containing DAPI was added dropwise to the sheet, and the sheet was sealed with cover glass. The image was taken with a fluorescence microscope to confirm expression of ZO-1 and Na^+/K^+ ATPase. The immunostaining was performed both 48 hours and 14 days after the seeding (FIG. 10 and FIG. 11).

[2] = system: rabbit bullous keratopathy model; assay: Corneal endothelial cell injection therapy in rabbit bullous keratopathy model (Example 8); type: in vivo; details: 14 days after cell injection; for expression of Na+/K+ ATPase: compared to control
Text: Male Japanese white rabbits (Biotek Co., Ltd., 8 rabbits) were subjected to the following nictitating membrane excision. Each animal was set in a positioner, and the ocular surface was topically anesthetized by instillation of a topical anesthesia (Benoxil instillation 0.4%, Santen Pharmaceutical Co., Ltd.). Then, the root position of the nictitating membrane was pressed with a clamp for 30 sec, and compressing mark was cut with scissors. After excision of the nictitating membrane, the antibiotic ointment (tarivid eye ointment, Santen Pharmaceutical Co., Ltd.) was instilled to prevent infection.
Three days after nictitating membrane excision, phacoemulsification and aspiration surgery (PEA) was performed on the left eye. Under systemic anesthesia, 3 mm incision was formed in the corneoscleral limbus, crystalline lens was excised by a cataract surgery instrument (NIDEK Co., Ltd.), and the incision was sutured with a nylon thread (Mani Inc.). After phacoemulsification and aspiration surgery (PEA), the antibiotic ointment (tarivid eye ointment, Santen Pharmaceutical Co., Ltd.) was instilled to prevent infection. After 5 days from the PEA, the animals were systemically anesthetized by intramuscular administration of Ketalar muscular injection ([…], DAIICHI SANKYO COMPANY, LIMITED., 0.6 ml) and Celactal 2% Injection (Bayer, Ltd., 0.25 ml). Then, Benoxil instillation 0.4% (Santen Pharmaceutical Co., Ltd., one drop) was instilled and the eye was opened using a lid speculum. Thereafter, 1 mm incision was formed in the corneoscleral limbus, and corneal endothelial cells were scraped with a silicon surgical instrument to mechanically detach the cells. The detachment area was confirmed by trypan blue staining.
The corneal endothelial cells were mechanically scraped, the cultured corneal endothelial cells were collected with 0.05% trypsin-EDTA (Invitrogen, Cat. #25300-054) from the culture flask to give a cell suspension. Using Dulbecco's modified Eagle's medium (DMEM) (Invitrogen, 12320-032), the cultured rabbit corneal endothelial cells were suspended in 3 groups of 10 μM compound (I)/DMEM, 100 μM Y-27632/DMEM and DMEM, each at 1.0×10^6 cells/ml. The cell suspension of each group (200 μl (2.0×10^5 cells per one eye)) was injected with a 22 gauge needle to the anterior chamber from the corneoscleral limbus of the prepared rabbit bullous keratopathy model, and the rabbit was fixed looking downward such that the corneal endothelium face was on the upper side and the corneal epithelial face was on the lower side for 3 hours. The fixing with looking downward was performed with appropriate addition of anesthetics, paying sufficient attention to animal protection.
After 14 days from the cell injection, the treated eye was isolated, and a corneoscleral tissue was excised from the isolated eyeball. The obtained corneoscleral tissue was fixed with 4% para-formaldehyde/PBS for 10 min, and blocked overnight with PBS (Invitrogen, Cat. #14190-144) containing 1% BSA (SIGMA, Cat. #A7906-50G). Thereafter, the corneoscleral tissue was divided into two, and treated with Alexa-488 labeling phalloidin staining actin (Invitrogen, Cat. #Al2379), or anti-Na^+/K^+ ATPase antibody, which is a corneal endothelium marker (UP State, Cat. #05-369), for 2 hours. The anti-Na^+/K^+ ATPase antibody treatment group was further treated with Alexa-488 labeled secondary antibody (Invitrogen, Cat. #A-21202) for 1 hour. Thereafter, the cells were immersed in Vectashield (registered trade mark)-DAPI (Vector Laboratories, Cat. #H-1200) solution, and mounted using cover glass. The specimen was observed under a confocal laser microscope.
Taking the number of nuclei stained with DAPI as the corneal endothelial cell count, the DAPI stained images were analyzed by Image-Pro plus (Media Cybernetics, Inc.), and corneal endothelial cells were counted.

Row | SMILES | coverage of the sheet with cells ([1]; 10 μM) | expression of Na+/K+ ATPase ([1]; 10 μM) | expression of ZO-1 ([1]; 10 μM) | fibrosis of injected cells (Phalloidin staining) ([2]; 100 μM in cell suspension) | corneal endothelial cell count versus control group ([2]; 100 μM) | expression of Na+/K+ ATPase ([2]; 100 μM) | coverage of the sheet with cells ([1]; 0.95 μM) | expression of Na+/K+ ATPase ([1]; 0.95 μM) | expression of ZO-1 ([1]; 0.95 μM) | time in which a cultured corneal endothelial cell sheet for transplantation can be produced ([1]; from the addition to culture medium) [h] | fibrosis of injected cells (Phalloidin staining) ([2]; 10 μM in cell suspension) | corneal endothelial cell count versus 100 μM Y-27632 group ([2]; 10 μM) | corneal endothelial cell count versus control group ([2]; 10 μM) | expression of Na+/K+ ATPase ([2]; 10 μM)
1 | C[C@@H](N)[C@H]1CC[C@H](C(=O)Nc2ccncc2)CC1 [Y-27632, reference compound] | partially uncovered with cells | found between cells in all | found between cells uniformly | suppression of fibrosis of cells | tended to show higher cell counts than the control group | expression of Na^+/K^+ ATPase was found |  |  |  |  |  |  |  | 
2 | C[C@@H](N)c1ccc(C(=O)Nc2ccnc3[nH]ccc23)cc1.Cl [compound (I), (R)-(+)-N-(1H-pyrrolo[2,3-b]pyridin-4-yl)-4-(1-aminoethyl)benzamide monohydrochloride] |  |  |  |  |  |  | cells were adhered to the whole surface of the sheet | found between cells in all | found between cells uniformly | 48 | suppression of fibrosis of cells | higher than that of the 100 μM Y-27632 treatment group | tended to show higher cell counts than the control group | expression of Na^+/K^+ ATPase was found
